Ends that are not written are not given here.

This is an account of results in US20260226101A1, “PEPTIDE WITH ANTI-INFLAMMATORY AND ANTI-MICROBIAL ACTIVITY” (priority 2023, published 2026).

Data set [1] has as its system E. coli ATCC 8739-induced septic peritonitis. As to the kind of experiment: E. coli-induced septic peritonitis model. The class given is in vivo, BALB/c mice. The note with it: for Mice alive: 18 h after infection. As for the experimental part: Bacterial strain of E. coli ATCC 8739™ were maintained in our laboratory and used for the mouse sepsis model. The strain was previously stored at −80° C. in a Luria Bertani (LB) broth with 15-20% of glycerol. Single colonies from viable, growing Luria-Bertani (LB) agar plates were transferred to sterile liquid LB medium (containing 10 g tryptone, 10 g NaCl, and 5 g yeast extract per liter) and cultivated aerobically in 50-ml volumes at 37° C. in an orbital shaker for 24 h at 37° C. These cultures were transferred to 500 ml of fresh LB medium for another 12 h. The optical density (OD) of the suspension was adjusted to 0.3 (exponential phase) using a spectrophotometer. Such OD corresponds to*10^8 colony-forming units (CFU)/mL. When bacteria were in the log phase of growth, the suspension was harvested by centrifugation at 1500×g for 5 min at 4° C.; the supernatant was discarded and washed and resuspended three times in phosphate-buffered saline (PBS) at pH 7.4 and mixed by vortexing to achieve a concentration of approximately 1×10^8 colony-formation units (CFU) per milliliter. Finally, the bacterial suspensions were incubated in a water bath at 100° C. for 30 min to inactivate the cells. One hundred microliters of the suspension were serially diluted with sterile saline solution, plated on sheep blood agar plates, and incubated for 18 hours for determination of the bacterial concentration. The rest of the culture suspension was stored at 4° C. until use. Just before the intraperitoneal injection, the bacterial suspension was adjusted to a concentration of 1×10^8 colony forming units (CFU) per 0.1 mL with normal saline solution/PBS.
This study was carried out within an animal containment BSL2 facility. The animals were infected with suspensions containing […] E. coli 8739™ (200 μL) inoculated intraperitoneally. The day of challenge was designated as day 1 of the experiment and considers it as 0 hr. [Wendy E. Walker, 2021; Komal Dolasia et al., 2018]
Mice received an intraperitoneal injection of E. coli ATCC 8739, 5.0×10^8 CFU per mouse in 200 μL to induce septic peritonitis as mentioned above. After 2 h of the E. coli infection, mice (n=6) were treated intravenously with two test doses of IS 111 (0.6 mg/kg & 1.2 mg/kg) in treatment groups. Control animals received 200 μL of normal saline. […] The figure was adopted and modified according to the present study. [Henrique G et al., 2020].
In all the animal experiments, IS 111 were administered by intravenous injections respectively; According to the clinical dosage regimen, IS 111 was repeatedly administered at 2 h after the intraperitoneal injection of heat-killed E. coli. The survival of mice was monitored for up to 5 days. In each group the half of the animals were killed after 18 hours. And in other subset of the animals, IS 111 at two doses 0.6 & 1.2 mg/kg were injected IV daily for 3 days following infection. The survival of mice was monitored for up to 18 h and the other half of the animals are continued for the survival monitored up to 5 days.
In the survival study, survival rates were determined over a period of 5 d with assessment every 12 h, by setting the day 0 from 0 to 18 h after surgery and continuing observation until […]. In each group the half of the animals were killed after 18 hours, in another half subset of animals was followed for 5 days for survival assessment after sepsis induction to verify mortality rates. IS 111 at two doses 0.6 & 1.2 mg/kg were injected IV daily 24 h for 3 days following the E. coli Infection.
The physical activity of the mice was recorded independently by two independent observers who were blinded to treatment before sampling as previously described. In this study predetermined grading system was used with a scale of 1 (healthy) to 5 (agony). […]

The next data set concerns BALB/C mice. As to the kind of experiment: Acute toxicity study, single dose. The class given is in vivo. As for the experimental part: Once after acclimation period, a total of forty mice for IV route of administration, forty mice (half male and half female)/route were randomized based on bodyweight divided into four groups (10 in each group/per route, in each group 5 per sex) per strain via IV route of administration; prior to dosing initiation (table 12). On the day of dosing (designated as Day 0 of the study), the mice were 6 weeks old, and their body weights ranged from 20 to 25 g. The dosing volume was 0.1 ml per mice and the actual volume of peptide IS 111 solution administered was calculated based on body weight measurements obtained on the day of administration and was administered IV in increasing doses of the synthetic test peptide IS 111 0.6, 2.4, & 4.8 mg/kg; (administration once). The routes of administration were the same proposed for use in humans [Food and Drug Administration, 1988]. Prior to dosing the animals were deprived of food for 12 hours but had free access to drinking water. […]
After a single dose administration, mortality and clinical signs associated with toxicity were observed and recorded daily for consecutive two weeks; body weight changes were measured before and after administration on the 14th day. The animals were observed frequently during the first 4-6-hour period following dose administration and once daily, thereafter, for […], during which animals were evaluated for mortality, clinical signs of toxicity, and behavior. […] The number of animals killed for each of the doses was noted and the LD50 calculated by the Up and Down method, which is one of the most used to reduce the number of animals used [P. A. Botham, 2004]. […]
The mortality, general health status, and toxic reaction symptoms of the experimental groups were documented. Before the first day of IS 111 administration and during the experiments, a detailed clinical observation was carried out and recorded the changes in skin, eyes and mucous membrane, respiratory system, nervous system, activity, and behaviors of the […]. The body weight was measured and recorded before the first day of administration.

Setting [2] is: 0.6 mg/kg IV, 18 hr after induction of septic shock.
Setting [3] is: 18 h, comparable to control mice.
[4] abbreviates: serum 18 h, therapeutic administration.

Regarding “FAKKFAK [IS 111, Phe-Ala-Lys-Lys-Phe-Ala-Lys]”, the “Lung and liver injuries (histopathology)” value in data set [1] (0.6 mg/kg IV, 18 h) is given as “reduces the injuries to moderate extent”. Also, in data set [1] (setting [2]), the Activity upon stimulation entry was “Sluggish activity. Animals”, the Conjunctivitis entry is recorded as “Mild (Usually serous” and the Hair coat entry is “Moderately ruffled coats”. In data set [1] (0.6 mg/kg), this substance displayed a Mice alive of 50%. Besides, in data set [1] (setting [3]), the Lymphocyte numbers entry is given as “restored” and the WBC numbers entry is on record as “restored”. For the same substance, the Neutrophil numbers entry in data set [1] (18 h, vs septic mice) is “marginally higher”. The substance further returned a Mice alive in data set [1] ([…]) of 80%. In addition, the Survival in data set [1] (after 7 days of infection, IS 111 treatment groups) amounted to 80%. In addition, in data set [1] (setting [4]), the IL-1b level entry is “significantly reduce”, the IL-6 level entry is “significantly reduce”, the “IL-12 p70 level” value is “significantly reduce” and the TNF-α level entry was “significantly reduce”. For the same substance, in data set [1] (vs diseased control animals (normal saline)), the Reduction of mortality stood at 80%. Besides, the “Adverse reaction in acute toxicity tests” value in the data set on BALB/C mice (any of the concentrations) is recorded as “no adverse reaction”. Also, the Mortality result in the data set with BALB/C mice (single dose 0.6, 2.4, 4.8 mg/kg, 14 days) was “No mortality”. In addition, the “Body weight and organ weights” value in the data set with BALB/C mice (single dose 0.6/2.4/4.8 mg/kg, intravenous) is reported as “no changes”.
